# Experimental data: publication PMC10734772 (Turkish Journal of Chemistry, 2021)
# Assays:
# Format in all cases: cell-based
# Molt-4 = assay: MTT assay, Molt-4 cells; conditions: Homo sapiens, MOLT-4, 24 h, read-out: Viability rate
# [1] = test system: K562, Nalm-6, Molt-4, Reh, Jurkat, Hek293T cell lines; assay: MTT assay, overall judgement over all cell lines; conditions: overall judgement in words; for 6 and 10: on all cell lines, except Reh
# Method in brief: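 MTT viability assay run across a range of compound concentrations in leukemic lines, BCR-ABL positive K562 and BCR-ABL negative Nalm-6, Molt-4, Reh, Jurkat, plus non-leukemic Hek293T. Viability rate calculated per concentration.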
# Jurkat = assay: MTT assay, Jurkat cells; conditions: Homo sapiens, 24 h, read-out: Viability rate
# K562 = assay: MTT assay, K562 cells; conditions: Homo sapiens, 24 h, MTT, read-out: Viability rate
# Protocol: (§1) K562, Jurkat and Molt-4 cell lines were seeded as 4x10^5/ml, Reh and Nalm-6 cell lines were seeded 5x10^5/ml, Hek293T cell line was seed as 2x10^5/ml.
# (§2) MTT assay is a 3-day test. On the first day, cell count was performed in Bio Rad TC-20 device with the help of trypan blue, each cell line was prepared by diluting to the specified concentrations and seeded in a 96-well plate as 100μL to each well and incubated for 1 day.
# (§3) On the second day, stock solutions were subsequently diluted to various concentrations (0.3–200 μM) with related medium prior to experiments. Specified concentrations of the compounds were seeded in a 96-well plate as 100μL to each well and incubated for 24 h.
# (§4) After incubation (on the third day), to precipitate leukemia cells, the cell plate was centrifuged at 1500 rpm for 5 min. […] The 50 μl of supernatant was discarded from each well and 100 μl of DMSO was added to dissolve the formazan. Plates were shaken for 45 min to dissolve the dye. Then the optical density of each well was measured by using Thermo VarioSkan Flush Multimode Reader Quantum ST5-1100 at 570 nm wavelength.
# (§5) Subsequently, viability rate of the cells at each concentration, as percentage, was determined by following formula (1):
# (§6) Viability rate (%)=100-[(OD(control)-OD(sample))/OD(control)×100].OD=Optical Density
# (§7) The IC50 values were calculated by using GraphPad Prism. All the data presented as the mean of 6 replicates. […] Statistical analysis was performed using dose-response inhibition, log(inhibitor) vs response-variable slope, least squares (ordinary) fit.
# [2] = MTT assay, Hek293T non-leukemic control cells; conditions: human, read-out: Viability rate
# Reh = assay: MTT assay, Reh cells; conditions: Homo sapiens, 24 h, read-out: Viability rate
# Nalm-6 = assay: MTT assay, Nalm-6 cells; conditions: Homo sapiens, 24 h, MTT, read-out: Viability rate
# Protocol: as §1, §2, §3, §4, §5, §6, §7
compound,measurement,setting,value
"Cc1ccc(NC(=O)c2ccc(CN3CCN(c4ncccn4)CC3)cc2)cc1Nc1cnccn1 [Compound 7, N-(4-Methyl-3-(pyrazin-2-ylamino)phenyl)-4-((4-(pyrimidin-2-yl)piperazin-1-yl)methyl)benzamide]",viability at 0.3 µM,"Molt-4; Molt-4, 0.3 μM",93.3 ± 0.16%
same,viability at 0.5 µM,"Molt-4; Molt-4, 0.5 μM",93.8 ± 0.08%
same,viability at 1 µM,"Molt-4; Molt-4, 1 μM",89.8 ± 0.07%
same,viability at 3 µM,"Molt-4; Molt-4, 3 μM",89.6 ± 0.12%
same,viability at 5 µM,"Molt-4; Molt-4, 5 μM",89.7 ± 0.08%
same,viability at 10 µM,"Molt-4; Molt-4, 10 μM",89.5 ± 0.06%
same,viability at 15 µM,"Molt-4; Molt-4, 15 μM",90.3 ± 0.04%
same,viability at 20 µM,"Molt-4; Molt-4, 20 μM",90.2 ± 0.06%
same,viability at 30 µM,"Molt-4; Molt-4, 30 μM",90.9 ± 0.06%
same,viability at 50 µM,"Molt-4; Molt-4, 50 μM",92.2 ± 0.05%
same,viability at 70 µM,"Molt-4; Molt-4, 70 μM",90.6 ± 0.06%
same,viability at 100 µM,"Molt-4; Molt-4, 100 μM",85.5 ± 0.06%
same,viability at 150 µM,"Molt-4; Molt-4, 150 μM",90.4 ± 0.04%
same,viability at 200 µM,"Molt-4; Molt-4, 200 μM",89.8 ± 0.07%
same,anticancer activity according to MTT assay results,[1],very poor activity
same,viability at 0.3 µM,Jurkat; 0.3 μM,77.4 ± 0.09%
same,viability at 0.5 µM,Jurkat; 0.5 μM,77.3 ± 0.07%
same,viability at 1 µM,Jurkat; 1 μM,75.7 ± 0.03%
same,viability at 3 µM,Jurkat; 3 μM,75.5 ± 0.05%
same,viability at 5 µM,Jurkat; 5 μM,75.6 ± 0.03%
same,viability at 10 µM,Jurkat; 10 μM,74.6 ± 0.06%
same,viability at 15 µM,Jurkat; 15 μM,74.2 ± 0.05%
same,viability at 20 µM,Jurkat; 20 μM,74 ± 0.06%
same,viability at 30 µM,Jurkat; 30 μM,73.2 ± 0.07%
same,viability at 50 µM,Jurkat; 50 μM,72.8 ± 0.03%
same,viability at 70 µM,Jurkat; 70 μM,72.8 ± 0.03%
same,viability at 100 µM,Jurkat; 100 μM,72.7 ± 0.04%
same,viability at 150 µM,Jurkat; 150 μM,72.4 ± 0.09%
same,viability at 200 µM,Jurkat; 200 μM,72.1 ± 0.06%
same,viability at 0.3 µM,"K562; K562, 0.3 μM",84.6 ± 0.15%
same,viability at 0.5 µM,"K562; K562, 0.5 μM",84.5 ± 0.08%
same,viability at 1 µM,"K562; K562, 1 μM",84.4 ± 0.08%
same,viability at 3 µM,"K562; K562, 3 μM",84.5 ± 0.1%
same,viability at 5 µM,"K562; K562, 5 μM",82.9 ± 0.12%
same,viability at 10 µM,"K562; K562, 10 μM",81.6 ± 0.05%
same,viability at 15 µM,"K562; K562, 15 μM",80.1 ± 0.06%
same,viability at 20 µM,"K562; K562, 20 μM",64 ± 0.07%
same,viability at 30 µM,"K562; K562, 30 μM",63.9 ± 0.04%
same,viability at 50 µM,"K562; K562, 50 μM",62.9 ± 0.06%
same,viability at 70 µM,"K562; K562, 70 μM",62.3 ± 0.07%
same,viability at 100 µM,"K562; K562, 100 μM",62.2 ± 0.05%
same,viability at 150 µM,"K562; K562, 150 μM",61.6 ± 0.05%
same,viability at 200 µM,"K562; K562, 200 μM",59.5 ± 0.07%
same,"viability at 24 h, 0.3 µM","[2]; Hek293T cells (non-leukemic control cell line), 0.3 μM",87.7 ± 0.06%
same,"viability at 24 h, 0.5 µM","[2]; Hek293T cells (non-leukemic control cell line), 0.5 μM",87.6 ± 0.07%
same,"viability at 24 h, 3 µM","[2]; Hek293T cells (non-leukemic control cell line), 3 μM",84.6 ± 0.05%
same,"viability at 24 h, 5 µM","[2]; Hek293T cells (non-leukemic control cell line), 5 μM",81 ± 0.09%
same,"viability at 24 h, 10 µM","[2]; Hek293T cells (non-leukemic control cell line), 10 μM",80.5 ± 0.06%
same,"viability at 24 h, 15 µM","[2]; Hek293T cells (non-leukemic control cell line), 15 μM",80.3 ± 0.04%
same,"viability at 24 h, 20 µM","[2]; Hek293T cells (non-leukemic control cell line), 20 μM",76 ± 0.03%
same,"viability at 24 h, 30 µM","[2]; Hek293T cells (non-leukemic control cell line), 30 μM",72.1 ± 0.02%
same,"viability at 24 h, 50 µM","[2]; Hek293T cells (non-leukemic control cell line), 50 μM",64.5 ± 0.02%
same,"viability at 24 h, 70 µM","[2]; Hek293T cells (non-leukemic control cell line), 70 μM",64.2 ± 0.02%
same,"viability at 24 h, 100 µM","[2]; Hek293T cells (non-leukemic control cell line), 100 μM",63.5 ± 0.07%
same,"viability at 24 h, 150 µM","[2]; Hek293T cells (non-leukemic control cell line), 150 μM",60.8 ± 0.03%
same,"viability at 24 h, 200 µM","[2]; Hek293T cells (non-leukemic control cell line), 200 μM",55.1 ± 0.02%
same,"viability at 24 h, 1 µM","[2]; Hek293T cells, 1 μM",87 ± 0.08%
same,viability at 0.3 µM,Reh; 0.3 μM,110 ± 0.02%
same,viability at 0.5 µM,Reh; 0.5 μM,109.8 ± 0.02%
same,viability at 1 µM,Reh; 1 μM,108.7 ± 0.02%
same,viability at 3 µM,Reh; 3 μM,103.4 ± 0.02%
same,viability at 5 µM,Reh; 5 μM,108.8 ± 0.02%
same,viability at 10 µM,Reh; 10 μM,106.5 ± 0.05%
same,viability at 15 µM,Reh; 15 μM,100.2 ± 0.02%
same,viability at 20 µM,Reh; 20 μM,95.5 ± 0.06%
same,viability at 30 µM,Reh; 30 μM,85.4 ± 0.02%
same,viability at 50 µM,Reh; 50 μM,66.7 ± 0.02%
same,viability at 70 µM,Reh; 70 μM,66.2 ± 0.03%
same,viability at 100 µM,Reh; 100 μM,67.7 ± 0.03%
same,viability at 150 µM,Reh; 150 μM,66.8 ± 0.02%
same,viability at 200 µM,Reh; 200 μM,62.8 ± 0.02%
same,viability at 0.3 µM,"Nalm-6; Nalm-6, 0.3 μM",97.9 ± 0.06%
same,viability at 0.5 µM,"Nalm-6; Nalm-6, 0.5 μM",95.1 ± 0.03%
same,viability at 1 µM,"Nalm-6; Nalm-6, 1 μM",95.1 ± 0.03%
same,viability at 3 µM,"Nalm-6; Nalm-6, 3 μM",96 ± 0.03%
same,viability at 5 µM,"Nalm-6; Nalm-6, 5 μM",95.6 ± 0.02%
same,viability at 10 µM,"Nalm-6; Nalm-6, 10 μM",95.1 ± 0.02%
same,viability at 15 µM,"Nalm-6; Nalm-6, 15 μM",95.9 ± 0.03%
same,viability at 20 µM,"Nalm-6; Nalm-6, 20 μM",96.4 ± 0.03%
same,viability at 30 µM,"Nalm-6; Nalm-6, 30 μM",96.5 ± 0.05%
same,viability at 50 µM,"Nalm-6; Nalm-6, 50 μM",72.3 ± 0.02%
same,viability at 70 µM,"Nalm-6; Nalm-6, 70 μM",71.8 ± 0.02%
same,viability at 100 µM,"Nalm-6; Nalm-6, 100 μM",71.3 ± 0.02%
same,viability at 150 µM,"Nalm-6; Nalm-6, 150 μM",70.2 ± 0.01%
same,viability at 200 µM,"Nalm-6; Nalm-6, 200 μM",59.7 ± 0.02%
